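Method: 48-hour compound exposure of cells in 96-well plates, five concentrations, linear interpolation of endpoints. At the GI50, growth is halved. At the TGI there is no net growth.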
Assays:
Test in all cases: NCI tumour cell line growth inhibition, 48 h
[1] = system: ACHN renal
[2] = system: CAKI-1 renal
[3] = system: CCRF-CEM leukemia
[4] = system: OVCAR-5 ovarian
[5] = system: SF-268 CNS
[6] = system: SF-295 CNS
[7] = system: SK-MEL-5 melanoma
[8] = system: SN12C renal
[9] = system: SW-620 colon
[10] = system: UACC-62 melanoma

Row | SMILES | TGI [1] [µM] | TGI [2] [µM] | TGI [3] [µM] | TGI [4] [µM] | TGI [5] [µM] | TGI [6] [µM] | TGI [7] [µM] | TGI [8] [µM] | TGI [9] [µM] | TGI [10] [µM] | GI50 [6] [µM] | GI50 [7] [µM] | GI50 [1] [µM] | GI50 [2] [µM] | GI50 [3] [µM] | GI50 [4] [µM] | GI50 [5] [µM] | GI50 [8] [µM] | GI50 [9] [µM] | GI50 [10] [µM]
1 | Cc1cc2c(Br)cc(Br)c(O)c2nc1C(=O)c1ccccc1 | > 100 | > 100 | > 100 | > 68.5 | > 100 | > 56.4 | 29.8 | > 100 | > 100 | 15.3 |  |  |  |  |  |  |  |  |  | 
2 | CC1(C)OC2COC3(CNO)OC(C)(C)OC3C2O1 (configuration not stated) | > 100 | > 100 | > 100 | > 100 | > 100 | > 100 | > 100 | > 100 | > 100 | > 100 |  |  |  |  |  |  |  |  |  | 
3 | Cc1nnc(N/N=C(/C(=O)C(C#N)c2ccccc2)C(C#N)c2ccccc2)n1N (configuration not stated) | 65.5 | > 56 | 15.9 | > 57 | > 61.3 | 13.7 | 32.7 | 16.6 | 8.19 | > 62.6 |  |  |  |  |  |  |  |  |  | 
4 | COc1ccccc1-c1cc(=O)c2ccc(C)nc2[nH]1 | > 100 | > 100 | > 100 | > 100 | > 100 | > 100 | > 100 | > 100 | > 100 | > 100 | > 100 | 51.6 |  |  |  |  |  |  |  | 
5 | CCOC1Oc2ccccc2-c2oc(=O)c(Sc3ccc(C)cc3)cc21 (configuration not stated) | > 100 | > 100 | 50.2 | > 100 | 75.8 | > 100 | 95.3 | > 100 | > 100 | > 100 | 19.2 | 26 | 28.8 | 35.4 | 14.5 | > 100 | 27.9 | 29.5 | 37.5 | 17.9

Reference: PubChem BioAssay (NCI)
